The target of experiment [1] is T1, recombinant human 17β-HSD1 (Homo sapiens, UniProt P14061).
T1 construct: made in house; host or cells: Sd9 (Sf9) insect cells, baculovirus (Bac to Bac Expression System); microsomal fraction
T1 sequence (P14061 1-328): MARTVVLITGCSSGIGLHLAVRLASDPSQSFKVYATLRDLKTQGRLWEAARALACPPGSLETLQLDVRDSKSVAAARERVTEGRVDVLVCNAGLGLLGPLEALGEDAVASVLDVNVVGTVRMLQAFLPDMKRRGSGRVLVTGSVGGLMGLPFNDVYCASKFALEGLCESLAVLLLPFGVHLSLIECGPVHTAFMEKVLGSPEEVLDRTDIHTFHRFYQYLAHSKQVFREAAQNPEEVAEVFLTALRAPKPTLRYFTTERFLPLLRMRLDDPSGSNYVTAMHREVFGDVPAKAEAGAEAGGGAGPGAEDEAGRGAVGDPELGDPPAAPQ
Description: Inhibition of recombinant human 17β-HSD1 (conversion of 3H-estrone to estradiol, HPLC). The format is biochemical. The following applies: inhibitor 1 μM; 30 nM estrone, 1 mM NADPH, 30 min at RT; read-out: 17β-HDS1 Inhibition % at 1 μM. The protocol:
17β-HSD1 production and isolation: Recombinant baculovirus was generated by the “Bac to Bac Expression System” (Invitrogen). Recombinant bacmid was transfected to Sd9 insect cells using “Cellfectin Reagent” (Invitrogen). 60 h later cells were harvested; the microsomal fraction was isolated as described by Puranen, T. J., Poutanen, M. H., Peltoketo, H. E., Vihko, P. T. and Vihko, R. K. (1994) Site-directed mutagenesis of the putative active site of human 17 β-hydroxysteroid dehydrogenase type 1. Biochem. J. 304: 289-293. Aliquots were stored frozen until determination of enzymatic activity.
Assay—Inhibition of recombinant human 17β-HSD1: Recombinant protein (1 μg/ml) was incubated in 20 mM KH2PO4 pH 7.4 with 30 nM estrone (including 800 000 cpm/ml of ^3H-estrone) and 1 mM NADPH for 30 min at RT, in the presence of the potential inhibitor at concentrations 1 μM or 0.1 μM. Inhibitor stock solutions were prepared in DMSO. Final concentration of DMSO was adjusted to 1% in all samples. The enzyme reaction was stopped by addition of 10% trichloroacetic acid (final concentration). Samples were centrifuged in a microtiter plate at 4000 rpm for 10 min. Supernatants were applied to reverse phase HPLC on a Waters Symmetry C18 column, equipped with a Waters Sentry Guard column. Isocratic HPLC runs were performed at RT at a flow rate of 1 ml/min in acetonitrile:water 48:52 as running solvent. Radioactivity was monitored in the eluate by a Packard Flow Scintillation Analyzer. Total radioactivity for estrone and estradiol were determined in each sample and percent conversion of estrone to estradiol was calculated according to the following formula:
(§1) Percent inhibition was calculated flowingly: % inhibition=100−% conversion

Experiment [2] concerns the target T2, recombinant human 17β-HSD2 (Homo sapiens, UniProt P37059).
T2 construct: made in house; host or cells: Sd9 (Sf9) insect cells, baculovirus (Bac to Bac Expression System); fractionated cell extract
T2 sequence (P37059 1-387): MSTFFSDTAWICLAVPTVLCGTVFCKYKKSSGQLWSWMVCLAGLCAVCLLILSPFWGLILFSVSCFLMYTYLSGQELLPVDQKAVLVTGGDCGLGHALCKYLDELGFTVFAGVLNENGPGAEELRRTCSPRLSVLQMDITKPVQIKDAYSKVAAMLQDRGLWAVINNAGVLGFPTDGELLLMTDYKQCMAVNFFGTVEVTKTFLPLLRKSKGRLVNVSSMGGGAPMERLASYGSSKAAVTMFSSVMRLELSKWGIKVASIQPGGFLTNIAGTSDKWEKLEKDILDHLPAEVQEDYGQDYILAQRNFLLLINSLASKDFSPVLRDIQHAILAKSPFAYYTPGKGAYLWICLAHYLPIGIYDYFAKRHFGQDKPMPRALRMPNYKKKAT
Description: Inhibition of recombinant human 17β-HSD2 (conversion of 3H-estradiol to estrone, HPLC). The format is biochemical. The following applies: inhibitor 1 μM; 50 nM estradiol, 1 mM NADH, 30 min at RT. The protocol:
17β-HSD2 production and isolation: Similarly to 17β-HSD1 the Recombinant baculovirus was generated by the “Bac to Bac Expression System” (Invitrogen). Recombinant bacmid was transfected to Sd9 insect cells using “Cellfectin Reagent” (Invitrogen). 60 h later cells were harvested and supernatant were fractionated by the following protocol: • cells were dissolved into 40 ml of A-buffer (40 mM TRIS, pH8.0, 20% glycerol, 20 μM NAD, 0.4 mM PMSF, 150 mM NaCl, 0.5% dodecyl-β-maltoside+protease inhibitor cocktail) • cells were sonicated • lysate was incubated on ice for 15 min • lysate was centrifuged 5000 rpm 15 min, +4° C. • centrifugation of the supernatant 180 000 g 30 min, +4° C. • pellet was dissolved into 8 ml of A-buffer • not resuspended material was removed by centrifugation 5000 rpm 15 min, +4° C. • the clear supernatant was divided into 100 μl aliquots and were stored frozen until determination of enzymatic activity.
The amount of 17β-HSD2 was analysed by immunoblotting and total protein concentration of each extract batch was determined.
Assay—Inhibition of recombinant human 17β-HSD2: Recombinant protein (4 μg/ml) was incubated in 20 mM KH2PO4 pH 8.5 with 50 nM estradiol (including 800 000 cpm/ml of ^3H-estradiol) and 1 mM NADH for 30 min at RT, in the presence of the potential inhibitor at concentrations 1 μM or 0.1 μM. Inhibitor stock solutions were prepared in DMSO. Final concentration of DMSO was adjusted to 1% in all samples. The enzyme reaction was stopped by addition of 10% trichloroacetic acid (final concentration). Samples were centrifuged in a microtiter plate at 4000 rpm for 10 min. Supernatants were applied to reverse phase HPLC on a Waters Symmetry C18 column, equipped with a Waters Sentry Guard column. Isocratic HPLC runs were performed at RT at a flow rate of 1 ml/min in acetonitrile:water 48:52 as running solvent. Radioactivity was monitored in the eluate by a Packard Flow Scintillation Analyzer. Total radioactivity for estrone and estradiol were determined in each sample and percent conversion of estradiol to estrone was calculated according to the following formula:
as §1

Results on 12 molecules are retold here after US20170081357A1, “[…] ACTIVE 17-NITROGEN SUBSTITUTED ESTRATREINTHIAZOLE DERIVATIVES AS INHIBITORS OF 17.BETA-HYDROXYSTEROID DEHYDROGENASE” (FORENDO PHARMA LTD, priority 2013, published 2017).

For the molecule `CO/N=C1\C[C@@H](CCC(=O)Nc2ncc(C)s2)C2C3CCc4cc(OC)ccc4C3CC[C@]12C` (stereo partly drawn) [Compound 74, 3-{(13S,15R)-3-Methoxy-17-[(E)-methoxyimino]-13-methyl-7,8,9,11,12,13,14,15,16,17-decahydro-6H-cyclopenta[a]phenanthren-15-yl}-N-(5-methylthiazol-2-yl)propanamide], the inhibition – broadly, the drop in the measured response relative to a control, in per cent – at 1 µM in experiment [1] was 59%; in experiment [2] it was 2%.

On to `Cc1cnc(NC(=O)CC[C@@H]2C/C(=N\OCC(=O)O)[C@@]3(C)CCC4c5ccc(O)cc5CCC4C23)s1` (stereo partly drawn) [Compound 109, [(13S,15R)-3-Hydroxy-13-methyl-15-[2-(5-methylthiazol-2-ylcarbamoyl)-ethyl]-6,7,8,9,11,12,13,14,15,16-decahydro-cyclopenta[a]phenanthren-(17E)-ylideneaminooxy]-acetic acid], for which the inhibition at 1 µM is 56% in experiment [1] and 0% in experiment [2].

Turning to `Cc1cnc(NC(=O)CC[C@@H]2C/C(=N\OCC(=O)O)[C@@]3(C)CCC4c5cc([N+](=O)[O-])c(O)cc5CCC4C23)s1` (stereo partly drawn) [Compound 111, [(13S,15R)-3-Hydroxy-13-methyl-2-nitro-15-[2-(5-methylthiazol-2-ylcarbamoyl)-ethyl]-6,7,8,9,11,12,13,14,15,16-decahydro-cyclopenta[a]phenanthren-(17E)-ylideneaminooxy]-acetic acid], the inhibition at 1 µM amounted to 55% in experiment [1] and 0% in experiment [2].

In the case of `CO/N=C1\C[C@@H](CCC(=O)Nc2ncc(C)s2)C2C3CCc4cc(O)c(CN5CCOCC5)cc4C3CC[C@]12C` (stereo partly drawn) [Compound 98, 3-{(13S,15R)-3-Hydroxy-17-[(E)-methoxyimino]-13-methyl-2-morpholin-4-ylmethyl-7,8,9,11,12,13,14,15,16,17-decahydro-6H-cyclopenta[a]phenanthren-15-yl}-N-(5-methylthiazol-2-yl)propanamide], the inhibition at 1 µM amounted to 57% in experiment [1] and 0% in experiment [2].

Take `Cc1cnc(NC(=O)CC[C@@H]2C/C(=N\NC(N)=O)[C@@]3(C)CCC4c5ccc(O)cc5CCC4C23)s1` (stereo partly drawn) [Compound 112, 3-{(13S,15R)-3-Hydroxy-17-[(E)-N-urea-imino]-13-methyl-7,8,9,11,12,13,14,15,16,17-decahydro-6H-cyclopenta[a]phenanthren-15-yl}-N-(5-methylthiazol-2-yl)propanamide]: the inhibition at 1 µM is 83% in experiment [1] and 5% in experiment [2].

For `Cc1cnc(NC(=O)CC[C@@H]2C(=C\O)/C(=N\O)[C@@]3(C)CCC4c5ccc(O)c(Br)c5CCC4C23)s1` (stereo partly drawn) [Compound 71, 3-{(13S,15S)-4-Bromo-3-hydroxy-17-[(Z)-hydroxyimino]-16-[1-hydroxy-meth-(E)-ylidene]-13-methyl-7,8,9,11,12,13,14,15,16,17-decahydro-6H-cyclopenta[a]phenanthren-15-yl}-N-(5-methylthiazol-2-yl)propanamide], the inhibition at 1 µM in experiment [1] came out at 82%; in experiment [2] it was 7%.

For the molecule `CO/N=C1\C[C@@H](CCC(=O)Nc2ncc(C)s2)C2C3CCc4cc(OC(=O)CN(C)C)ccc4C3CC[C@]12C` (stereo partly drawn) [Compound 101, Dimethylamino-acetic acid (13S,15R)-17[(E)-methoxyimino]-13-methyl-15-[2-(5-methylthiazol-2-ylcarbamoyl)-ethyl]-7,8,9,11,12,13,14,15,16,17-decahydro-6H-cyclopenta[a]phenanthren-3-yl ester], the inhibition at 1 µM in experiment [1] amounted to 88%; in experiment [2], 3%.

With `CCO/N=C1\C[C@@H](CCC(=O)Nc2ncc(C)s2)C2C3CCc4cc(O)ccc4C3CC[C@]12C` (stereo partly drawn) [Compound 105, 3-{(13S,15R)-17-[(E)-Ethoxyimino]-3-hydroxy-13-methyl-7,8,9,11,12,13,14,15,16,17-decahydro-6H-cyclopenta[a]phenanthren-15-yl}-N-(5-methylthiazol-2-yl)propanamide], the values for the inhibition at 1 µM in experiment [1] and in experiment [2] were 94% and 3%, respectively.

In the case of `Cc1cnc(NC(=O)CC[C@@H]2C/C(=N\NC(N)=O)[C@@]3(C)CCC4c5cc(Br)c(O)c(Br)c5CCC4C23)s1` (stereo partly drawn) [Compound 113, 3-{(13S,15R)-2,4-Dibromo-3-hydroxy-17-[(E)-N-urea-imino]-13-methyl-7,8,9,11,12,13,14,15,16,17-decahydro-6H-cyclopenta[a]phenanthren-15-yl}-N-(5-methylthiazol-2-yl)propanamide], the inhibition at 1 µM in experiment [1] was 58%; in experiment [2], 1%.

With `C=CCO/N=C1\C[C@@H](CCC(=O)Nc2ncc(C)s2)C2C3CCc4cc(O)ccc4C3CC[C@]12C` (stereo partly drawn) [Compound 107, 3-{(13S,15R)-17-[(E)-Allyloxyimino]-3-hydroxyl-13-methyl-7,8,9,11,12,13,14,15,16,17-decahydro-6H-cyclopenta[a]phenanthren-15-yl}-N-(5-methylthiazol-2-yl)propanamide], the inhibition at 1 µM in experiment [1] worked out at 70%; in experiment [2], 3%.

Regarding `CO/N=C1\C[C@@H](CCC(=O)Nc2ncc(C)s2)C2C3CCc4cc(OC(C)=O)ccc4C3CC[C@]12C` (stereo partly drawn) [Compound 100, Acetic acid (13S,15R)-17[(E)-methoxyimino]-13-methyl-15-[2-(5-methylthiazol-2-ylcarbamoyl)-ethyl]-7,8,9,11,12,13,14,15,16,17-decahydro-6H-cyclopenta[a]phenanthren-3-yl ester], the inhibition at 1 µM in experiment [1] was found to be 84%; in experiment [2], 1%.

As for `Cc1cnc(NC(=O)CC[C@@H]2c3c[nH]nc3[C@@]3(C)CCC4c5cc(Br)c(O)c(Br)c5CCC4C23)s1` (stereo partly drawn) [Compound 54, 3-((6aS,10S)-1,3-dibromo-2-hydroxy-6a-methyl-4b,5,6,6a,8,10,10a,10b,11,12-decehydro-7,8-diaza-pentaleno[2,1-1]phenanthren-10-yl}-N-(5-methylthiazol-2-yl)propanamide], the inhibition at 1 µM in experiment [1] was determined as 90%; in experiment [2] it was 13%.
